According to ChEMBL document CHEMBL4004788, “Cyclin-Dependent Kinase (CDK) Inhibitors: Structure-Activity Relationships and Insights into the CDK-2 Selectivity of 6-Substituted 2-Arylaminopurines” (J Med Chem, 2017):
Calls of active or inactive are those of the source.

Assays:
[1] = molecular target: Cyclin-dependent kinase 2 (Homo sapiens, UniProt P24941)
Description: Inhibition of CDK2 (unknown origin)

SJSA-1 [2] = experiment: Growth inhibition of Rb-proficient human SJSA1 cells after 120 hrs by SRB assay; assay type: functional
A-375 [3] = experiment: Growth inhibition of Rb-proficient human A375 cells after 120 hrs by SRB assay; assay type: functional
MDA-MB-231 [4] = experiment: Growth inhibition of Rb-proficient human MDA-MB-231 cells after 120 hrs by SRB assay; assay type: functional
Skut1B [5] = experiment: Growth inhibition of Rb-proficient human SK-UT-1B cells after 120 hrs by SRB assay; assay type: functional
Calu-6 [6] = experiment: Growth inhibition of Rb-proficient human Calu6 cells after 120 hrs by SRB assay; assay type: functional
Homo sapiens = species on record: Homo sapiens; experiment: Inhibition of Cdk4/Cyclin D (unknown origin) relative to untreated control; settings: concentration not given here
Calu-6 [7] = experiment: Growth inhibition of Rb-proficient human Calu6 cells at 30 uM after 120 hrs by SRB assay; assay type: functional, cell-based
MDA-MB-231 [8] = experiment: Growth inhibition of Rb-proficient human MDA-MB-231 cells at 30 uM after 120 hrs by SRB assay; assay type: functional, cell-based
A-375 [9] = experiment: Growth inhibition of Rb-proficient human A375 cells at 30 uM after 120 hrs by SRB assay; assay type: functional, cell-based
Skut1B [10] = experiment: Growth inhibition of Rb-proficient human SK-UT-1B cells at 30 uM after 120 hrs by SRB assay; assay type: functional, cell-based
SJSA-1 [11] = experiment: Growth inhibition of Rb-proficient human SJSA1 cells at 30 uM after 120 hrs by SRB assay; assay type: functional, cell-based
[12] = Chemical stability of the compound; assay type: physicochemical

CC[C@@H](C)Oc1nc(Nc2ccc(S(N)(=O)=O)cc2)nc(N)c1C=O
0.0008 µM: IC50 [1]

NS(=O)(=O)c1ccc(Nc2nc(OCC3CCCCC3)c3nc[nH]c3n2)cc1
active: growth inhibition (GI) (SJSA-1 [2]) | growth inhibition (GI) (A-375 [3]) | growth inhibition (GI) (MDA-MB-231 [4]) | growth inhibition (GI) (Skut1B [5]) | growth inhibition (GI) (Calu-6 [6])

Nc1nc(OCC2CCCCC2)c2cn[nH]c2n1
0%: inhibition (Homo sapiens)

NS(=O)(=O)c1ccc(Nc2nc(-c3cccc(-c4ccccc4)c3)c3nc[nH]c3n2)cc1
inactive: growth inhibition (GI) (Calu-6 [7]) | growth inhibition (GI) (MDA-MB-231 [8]) | growth inhibition (GI) (A-375 [9]) | growth inhibition (GI) (Skut1B [10]) | growth inhibition (GI) (SJSA-1 [11])

CCC(C)Oc1nc(N)nc2[nH]cnc12 (centres undefined)
49 µM: IC50 [1]

NS(=O)(=O)c1ccc(Nc2nc(OCC3CCCCC3)c3cc[nH]c3n2)cc1
active: growth inhibition (GI) (SJSA-1 [2]) Dose-dependent effect | growth inhibition (GI) (A-375 [3]) Dose-dependent effect | growth inhibition (GI) (MDA-MB-231 [4]) Dose-dependent effect | growth inhibition (GI) (Skut1B [5]) Dose-dependent effect | growth inhibition (GI) (Calu-6 [6]) Dose-dependent effect

COc1nc(N)nc2nc[nH]c12 [METHYLGUANINE]
Unstable: Stability [12]

NS(=O)(=O)c1ccc(Nc2nc(OCC3CCCCC3)c3cn[nH]c3n2)cc1
active: growth inhibition (GI) (SJSA-1 [2]) Dose-dependent effect | growth inhibition (GI) (A-375 [3]) Dose-dependent effect | growth inhibition (GI) (MDA-MB-231 [4]) Dose-dependent effect | growth inhibition (GI) (Skut1B [5]) Dose-dependent effect | growth inhibition (GI) (Calu-6 [6]) Dose-dependent effect
